# US11787830B2, “Crystalline solids of nicotinic acid mononucleotide and esters thereof and methods of making and use” (Metro International Biotech, LLC, priority 2021, dated 2023)
# Experiment: physchem
# Protocol: An additional 2 mL of water was added to give a clear solution. […] This was allowed to stir for two days at ambient temperature. The solids were filtered and washed with 15 mL of (2:1 v:v) 1-propanol:water, 15 mL of 1-propanol, then 2×15 mL of methyl tert-butyl ether.
smiles,measurement,setting,value
"O=C([O-])c1ccc[n+]([C@@H]2O[C@H](COP(=O)(O)O)[C@@H](O)[C@H]2O)c1 [Compound 2, Nicotinic acid mononucleotide]",water solubility as ratio water:Compound 2,,50:1 w:w
same,solubility,water,~20 mg/mL
